Assay results taken from patent US20220388990A1, “INHIBITORS OF CYCLIN-DEPENDENT KINASES” (Kinnate Biopharma Inc., priority 2019, published 2022).
Where a name gives a salt, the structure may show the parent alone.

Target: T1, CDK12 wt/CycK (Homo sapiens, UniProt Q9NYV4)
T1 construct: either as full-length or enzymatically active fragments
Assay: Radiometric protein kinase assay (33PanQinase), assay condition 2, thiol containing conditions
Type: biochemical
Conditions: thiol containing conditions (1.2 mM DTT), ATP 0.3 μM
Procedure: Example 1—Assay condition 2 (thiol containing conditions)
Objective: The IC50 profile of test compounds was determined using protein kinases. IC50 values were measured by testing 10 concentrations (1×10^−04M, 3×10^−05M, 1×10^−05M, 3×10^−06M, 1×10^−06M, 3×10^−07M, 1×10^−07M, 3×10^−08M, 1×10^−08M, and 3×10^−09M) of each compound in singlicate.
Test compounds: The compounds were provided as pre-weighed powders in vials. The compounds were dissolved to 1×10^−02M by adding DMSO. 100 μl of each of the resulting stock solutions were transferred into column 2 of four 96 well “master plates”
Prior to testing, the 1×10^−02M stock solutions in column 2 of the master plates were subjected to a serial, semi-logarithmic dilution using 100% DMSO as a solvent. […] Column 1 and 7 were filled with 100% DMSO as controls. Subsequently, 2×10 μl from each well of the serial diluted copy plates were aliquoted with a 96 channel pipettor into two identical sets of “compound dilution plates”.
In the process, 90 μl H2O were added to each well of a set of compound dilution plates. To minimize potential precipitation, the H2O was added to each plate only a few minutes before the transfer of the compound solutions into the assay plates. Each plate was shaken thoroughly, resulting in a “compound dilution plate/ 10% DMSO”.
For the assays, 5 μl solution from each well of the compound dilution plates/10% DMSO were transferred into the assay plates. The final volume of the assay was 50 μl. All compounds were tested at 10 final assay concentrations in the range from 1×10^−04M to 3×10^−09M, in singlicate. The final DMSO concentration in the reaction cocktails was 1% in all cases.
Recombinant protein kinases: All protein kinases were expressed in Sf9 insect cells or in E.coli as recombinant GST-fusion proteins or His-tagged proteins, either as full-length or enzymatically active fragments. All kinases were produced from human cDNAs and purified by either GSH-affinity chromatography or immobilized metal. Affinity tags were removed from a number of kinases during purification. The purity of the protein kinases was examined by SDS-PAGE/Coomassie staining, the identity was checked by mass spectroscopy.
Protein kinase assay: A radiometric protein kinase assay (^33PanQinase® Activity Assay) was used for measuring the kinase activity. All kinase assays were performed in 96-well FlashPlates™ from PerkinElmer (Boston, MA, USA) in a 50 μl reaction volume. The reaction cocktail was pipetted in four steps in the following order: • 20 μl of assay buffer (standard buffer) • 5μl of ATP solution (in H2O) • 5μl of test compound (in 10% DMSO) • 20 μl enzyme/substrate mix
The assay for all protein kinases contained 70 mM HEPES-NaOH pH 7.5, 3 mM MgCl2, 3 mM MnCl2, 3 μM Na-orthovanadate, 1.2 mM DTT, 50 μg/ml PEG20000, ATP (variable concentrations, corresponding to the apparent ATP-K. of the respective kinase), [γ-^33P]-ATP (approx. 9×10^05cpm per well), protein kinase, and substrate.
The following amounts of enzyme and substrate were used per well:
The reaction cocktails were incubated at 30° C. for 60 minutes. The reaction was stopped with 50 μl of 2% (v/v) H3PO4, plates were aspirated and washed two times with 200 μl 0.9% (w/v) NaCl. Incorporation of ^33Pi was determined with a microplate scintillation counter (Microbeta, Wallac). All assays were performed with a BeckmanCoulter/SAGIANTM Core System.
Evaluation of raw data: The median value of the counts in column 1 (n=8) of each assay plate was defined as “low control”. This value reflects unspecific binding of radioactivity to the plate in the absence of a protein kinase but in the presence of the substrate. The median value of the counts in column 7 of each assay plate (n=8) was taken as the “high control”, i.e. full activity in the absence of any inhibitor. The difference between high and low control was taken as 100% activity. […]

T1 sequence (Q9NYV4 whole entry, the tested form may be a part): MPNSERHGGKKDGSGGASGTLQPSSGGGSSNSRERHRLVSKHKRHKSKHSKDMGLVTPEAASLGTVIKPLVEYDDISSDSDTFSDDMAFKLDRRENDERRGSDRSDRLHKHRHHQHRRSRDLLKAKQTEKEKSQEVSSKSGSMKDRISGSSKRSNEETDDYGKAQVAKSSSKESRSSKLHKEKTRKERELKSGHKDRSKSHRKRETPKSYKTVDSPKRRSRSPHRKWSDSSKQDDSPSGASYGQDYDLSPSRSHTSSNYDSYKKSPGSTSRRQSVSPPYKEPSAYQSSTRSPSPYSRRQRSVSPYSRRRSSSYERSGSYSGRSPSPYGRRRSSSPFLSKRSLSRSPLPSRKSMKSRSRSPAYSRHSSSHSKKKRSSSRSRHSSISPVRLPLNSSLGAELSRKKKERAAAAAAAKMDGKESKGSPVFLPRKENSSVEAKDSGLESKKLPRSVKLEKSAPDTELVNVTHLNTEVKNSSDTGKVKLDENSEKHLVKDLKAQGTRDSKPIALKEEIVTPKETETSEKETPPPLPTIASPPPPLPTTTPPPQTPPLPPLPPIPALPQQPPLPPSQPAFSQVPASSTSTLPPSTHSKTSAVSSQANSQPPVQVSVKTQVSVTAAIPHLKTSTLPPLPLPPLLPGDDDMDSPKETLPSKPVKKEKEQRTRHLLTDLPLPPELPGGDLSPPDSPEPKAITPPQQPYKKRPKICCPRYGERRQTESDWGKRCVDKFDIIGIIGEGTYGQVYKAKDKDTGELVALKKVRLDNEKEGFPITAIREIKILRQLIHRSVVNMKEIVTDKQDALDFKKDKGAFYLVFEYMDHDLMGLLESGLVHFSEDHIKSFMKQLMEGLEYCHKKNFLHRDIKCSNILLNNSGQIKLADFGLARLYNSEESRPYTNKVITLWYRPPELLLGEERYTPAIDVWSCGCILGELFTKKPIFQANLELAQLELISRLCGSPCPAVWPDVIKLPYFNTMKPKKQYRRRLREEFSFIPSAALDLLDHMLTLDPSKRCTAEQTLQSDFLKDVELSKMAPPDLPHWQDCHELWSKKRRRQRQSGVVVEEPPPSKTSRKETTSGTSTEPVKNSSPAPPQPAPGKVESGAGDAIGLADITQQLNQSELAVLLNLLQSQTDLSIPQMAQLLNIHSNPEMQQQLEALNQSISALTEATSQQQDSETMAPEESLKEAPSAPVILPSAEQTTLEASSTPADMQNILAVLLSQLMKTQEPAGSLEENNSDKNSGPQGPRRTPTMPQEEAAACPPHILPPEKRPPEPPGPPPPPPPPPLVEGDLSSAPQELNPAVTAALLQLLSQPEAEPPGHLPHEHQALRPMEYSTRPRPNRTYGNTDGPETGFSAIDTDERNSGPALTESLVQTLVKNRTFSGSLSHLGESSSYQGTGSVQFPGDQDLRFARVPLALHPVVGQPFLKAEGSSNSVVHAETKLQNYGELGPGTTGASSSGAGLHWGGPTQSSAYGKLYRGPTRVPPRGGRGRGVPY
T1 sequence (O75909 whole entry partner, the tested form may be a part): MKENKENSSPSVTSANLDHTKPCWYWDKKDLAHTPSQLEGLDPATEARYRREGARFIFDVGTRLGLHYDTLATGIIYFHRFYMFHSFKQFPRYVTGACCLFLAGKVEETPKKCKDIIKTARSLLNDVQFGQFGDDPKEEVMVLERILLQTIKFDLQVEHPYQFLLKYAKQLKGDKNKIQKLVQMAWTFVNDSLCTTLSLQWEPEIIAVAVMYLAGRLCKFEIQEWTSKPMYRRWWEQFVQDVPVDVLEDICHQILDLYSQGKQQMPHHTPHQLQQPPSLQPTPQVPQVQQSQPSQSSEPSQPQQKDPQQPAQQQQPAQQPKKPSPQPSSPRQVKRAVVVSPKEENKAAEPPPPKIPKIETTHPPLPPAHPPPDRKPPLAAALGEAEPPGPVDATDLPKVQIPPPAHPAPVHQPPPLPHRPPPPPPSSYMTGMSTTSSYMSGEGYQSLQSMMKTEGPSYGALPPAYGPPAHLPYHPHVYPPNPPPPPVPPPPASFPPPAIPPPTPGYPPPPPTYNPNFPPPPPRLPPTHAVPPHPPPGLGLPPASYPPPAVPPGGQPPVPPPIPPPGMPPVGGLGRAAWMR

With `C=CC(=O)Nc1ccc2c(N3CC[C@@H](Nc4ncc(C#N)cn4)C3)nc(OCC(F)(F)F)nc2c1` [Example 32, (R)—N-(4-(3-((5-cyanopyrimidin-2-yl)amino)pyrrolidin-1-yl)-2-(2,2,2-trifluoroethoxy)quinazolin-7-yl)acrylamide] as the compound, how does the IC50 read?
Its IC50 is 100 to 1000 nM.

`CC#CC(=O)Nc1ccc2c(N3CC[C@@H](Nc4ncc(Br)cn4)C3)nccc2c1` [Example 33, (R)—N-(1-(3-((5-bromopyrimidin-2-yl)amino)pyrrolidin-1-yl)isoquinolin-6-yl)but-2-ynamide] was tested. Which IC50 did it give?
The IC50 was ≤ 100 nM.

With `Cc1nc(N2CC[C@@H](Nc3ncc(Cl)c(-c4cnn5ccccc45)n3)C2)c2ccc(NC(=O)/C=C/CN(C)C)cc2n1` [Example 35, (R,E)—N-(4-(3-((5-chloro-4-(pyrazolo[1,5-a]pyridin-3-yl)pyrimidin-2-yl)amino)pyrrolidin-1-yl)-2-methylquinazolin-7-yl)-4-(dimethylamino)but-2-enamide] as the compound, how does the IC50 read?
The IC50 was ≤ 100 nM.

Which IC50 does the source give for `C=CC(=O)N(C)c1ccc2c(N3CC[C@@H](Nc4ncc(C#N)cn4)C3)nccc2c1` [Example 36, (R)—N-(1-(3-((5-cyanopyrimidin-2-yl)amino)pyrrolidin-1-yl)isoquinolin-6-yl)-N-methylacrylamide] here?
The IC50 was ≤ 100 nM.

Target: T2, CDK12 (Homo sapiens, UniProt Q9NYV4)
T2 construct: ProQinase (named as the party running the assay)
T2 sequence (Q9NYV4 whole entry): as the sequence (Q9NYV4 whole entry, the tested form may be a part) above
T2 sequence (O75909 whole entry partner): as the sequence (O75909 whole entry partner, the tested form may be a part) above
Assay: Radiometric protein kinase assay (33PanQinase), assay condition 1, thiol-free conditions
Type: biochemical
Conditions: thiol-free conditions (1 mM TCEP), ATP at apparent Km
Procedure: Example 2 —Assay condition 1 (thiol-free conditions)
The IC50 profile of compounds was determined using protein kinase in a customized, thiol free assay. IC50 values were measured by testing 10 concentrations (1×10^−05 M to 3×10^−10 M) of each test compound in singlicate against each kinase of interest. Prior to testing, the 1×10^−03M stock solutions in column 2 of the master plates were subjected to a serial, semi-logarithmic dilution using 100% DMSO as a solvent. […] Column 1 and 7 were filled with 100% DMSO as controls. Subsequently, 2×10 microliter from each well of the serial diluted copy plates were aliquoted with a 96 channel pipettor into two identical sets of “compound dilution plates”. All plates were barcoded for automated identification and tracking purposes. IC50 values were measured by testing 10 concentrations (1×10^−05 M to 3×10^−10 M) of each compound in singlicate. All compounds were stored as powder until being solubilized in DMSO. Solubilized compounds were stored as 1×10^−02 M/100% DMSO stock solutions. Prior to the assay process, 90 microliters of H2O were added to each well of a set of compound dilution plates. To minimize potential precipitation, the H2O was added to each plate only a few minutes before the transfer of the compound solutions into the assay plates. Each plate was shaken thoroughly, resulting in compound dilution plates with a final of 10% DMSO. For each assay, 5 microliters of solution from each well of the compound dilution plates/10% DMSO were transferred into the assay plate. The final volume of the assay was 50 μl. All compounds were tested at 10 final assay concentrations in the range from 1×10^−05 M to 3×10^−10 M, in singlicate. The final DMSO concentration in the reaction cocktails was 1% in all cases. A radiometric protein kinase assay (33PanQinase® Activity Assay) was used for measuring the kinase activity of the protein kinase. All kinase assays were performed in 96-well FlashPlates™ from PerkinElmer (Boston, Mass., USA) in a 50 microliter reaction volume. The reaction cocktail was pipetted in four steps in the following order: 20 microliter of assay buffer (standard buffer) 5 microliter of ATP solution (in H2O) 5 microliter of test compound (in 10% DMSO) 20 microliter enzyme/subtrate mix. Each assay for the protein kinase contained 70 mM HEPES-NaOH pH 7.5, 3 mM MgCl2, 3 mM MnCl2, 3 microM Na-orthovanadate, 1 mM TCEP, 50 μg/ml PEG20000, ATP (corresponding to the apparent ATP-Km of the kinase, see Table A), [gamma-33P]-ATP (approx. 6×10×E5 cpm per well), with the protein kinase and relevant substrate being used in pre-determined amounts, depending on the kinase in question. For all experiments labeled as “Thiol-free”, all glutathione was exchanged from protein preparations so as to be removed from the assay and final buffer conditions contained no thiol- containing reagents. This was done so there would be no interference with the key cysteines in the proteins of interest.
For data analysis, the median value of the counts in column 1 (n=8) of each assay plate was defined as “low control”. This value reflects unspecific binding of radioactivity to the plate in the absence of a protein kinase but in the presence of the substrate. The median value of the counts in column 7 of each assay plate (n=8) was taken as the “high control”, i.e. full activity in the absence of any inhibitor. The difference between high and low control was taken as 100% activity. As part of the data evaluation the low control value from a particular plate was subtracted from the high control value as well as from all 80 “compound values” of the corresponding plate. The residual activity (in %) for each well of a particular plate was calculated by using the following formula:
Res. Activity (%)=100×[(cpm of compound−low control)/(high control−low control)] […]

With `C=CC(=O)Nc1ccc2c(N3CC[C@@H](Nc4ncc(C#N)cn4)C3)nc(N)nc2c1` [Example 31, (R)—N-(2-amino-4-(3-((5-cyanopyrimidin-2-yl)amino)pyrrolidin-1-yl)quinazolin-7-yl)acrylamide] as the compound, how does the IC50 read?
The IC50 was ≤ 100 nM.

How did the IC50 turn out when `C=CC(=O)Nc1ccc2c(N3CC[C@@H](Nc4cc5c(cn4)cnn5CC)C3)ncnc2c1` [Example 34, (R)—N-(4-(3-((1-ethyl-1H-pyrazolo[4,3-c]pyridin-6-yl)amino)pyrrolidin-1-yl)quinazolin-7-yl)acrylamide] was run?
Its IC50 is ≤ 100 nM.

Which IC50 does the source give for `C=CC(=O)N(C)c1ccc2c(N3CC[C@@H](Nc4ncc(Br)cn4)C3)nc(N3CCN(C)CC3)nc2c1` [Example 43, (R)—N-(4-(3-((5-bromopyrimidin-2-yl)amino)pyrrolidin-1-yl)-2-(4-methylpiperazin-1-yl)quinazolin-7-yl)-N-methylacrylamide] here?
Its IC50 is ≤ 100 nM.

How did the IC50 turn out when `C#Cc1cnc(N[C@@H]2CCN(c3nccc4cc(N(C)C(=O)C=C)ccc34)C2)nc1` [Example 44, (R)—N-(1-(3-((5-ethynylpyrimidin-2-yl)amino)pyrrolidin-1-yl)isoquinolin-6-yl)-N-methylacrylamide] was run?
Its IC50 is ≤ 100 nM.

With `C=CC(=O)Nc1ccc2c(N3CC[C@@H](Nc4ncc(C#N)cn4)C3)nnc(N3CCC3)c2c1` [Example 45, (R)—N-(4-(azetidin-1-yl)-1-(3-((5-cyanopyrimidin-2-yl)amino)pyrrolidin-1-yl)phthalazin-6-yl)acrylamide formate] as the compound, how does the IC50 read?
Its IC50 is ≤ 100 nM.

`C#Cc1cnc(N[C@@H]2CCN(c3nccc4cc(NC(=O)C=C)ccc34)C2)nn1` [Example 47, (R)—N-(1-(3-((6-ethynyl-1,2,4-triazin-3-yl)amino)pyrrolidin-1-yl)isoquinolin-6-yl)acrylamide] was tested. Which IC50 did it give?
Its IC50 is ≤ 100 nM.

With `C#Cc1cnc(N[C@@H]2CCN(c3nccc4cc(NC(=O)C=C)ccc34)C2)nc1` [Example 48, (R)—N-(1-(3-((5-ethynylpyrimidin-2-yl)amino)pyrrolidin-1-yl)isoquinolin-6-yl)acrylamide] as the compound, how does the IC50 read?
Its IC50 is ≤ 100 nM.

With `C=CC(=O)Nc1ccc2c(N3CC[C@@H](Nc4ncc(C#N)cn4)C3)nncc2c1` [Example 49, (R)—N-(1-(3-((5-cyanopyrimidin-2-yl)amino)pyrrolidin-1-yl)phthalazin-6-yl)acrylamide] as the compound, how does the IC50 read?
Its IC50 is ≤ 100 nM.

Which IC50 does the source give for `C=CC(=O)Nc1ccc2c(N3CC[C@@H](Nc4ncc(Br)cn4)C3)nncc2c1` [Example 50, (R)—N-(1-(3-((5-bromopyrimidin-2-yl)amino)pyrrolidin-1-yl)phthalazin-6-yl)acrylamide] here?
Its IC50 is ≤ 100 nM.

For `C#Cc1cnc(N[C@@H]2CCN(c3nncc4cc(NC(=O)C=C)ccc34)C2)nc1` [Example 51, (R)—N-(1-(3-((5-ethynylpyrimidin-2-yl)amino)pyrrolidin-1-yl)phthalazin-6-yl)acrylamide formate], which IC50 is on record?
The IC50 was ≤ 100 nM.

Which IC50 does the source give for `C=CC(=O)Nc1ccc2c(N3CC[C@@H](Nc4ncc(Br)cn4)C3)nnc(N3CCC3)c2c1` [Example 52, (R)—N-(4-(azetidin-1-yl)-1-(3-((5-bromopyrimidin-2-yl)amino)pyrrolidin-1-yl)phthalazin-6-yl)acrylamide] here?
Its IC50 is ≤ 100 nM.

`C#Cc1cnc(N[C@@H]2CCN(c3nnc(N4CCC4)c4cc(NC(=O)C=C)ccc34)C2)nn1` [Example 53] was tested. Which IC50 did it give?
Its IC50 is ≤ 100 nM.

How did the IC50 turn out when `C=CC(=O)Nc1ccc2c(N3CC[C@@H](Nc4ncc(C#N)cn4)C3)nnc(N3CC(C#N)C3)c2c1` [Example 54, (R)—N-(4-(3-cyanoazetidin-1-yl)-1-(3-((5-cyanopyrimidin-2-yl)amino)pyrrolidin-1-yl)phthalazin-6-yl)acrylamide] was run?
The IC50 was ≤ 100 nM.
